Data as given in ChEMBL document CHEMBL1155953, “Synthesis and biological evaluation of C-12' substituted vinflunine derivatives” (Bioorg Med Chem Lett, 2008).

Test system: A549
Test: Cytotoxicity against human A549 cells by SRB assay
Type: functional, cell-based

SMILES	IC50
CC[C@]12C=CCN3CC[C@@]4(c5cc([C@@]6(C(=O)OC)C[C@H]7C[C@@H](C(C)(F)F)CN(Cc8c6[nH]c6ccc(-c9ccccc9C(F)(F)F)cc86)C7)c(OC)cc5N(C)[C@H]4[C@@](O)(C(=O)OC)[C@@H]1OC(C)=O)[C@@H]32	290 nM
CC[C@]12C=CCN3CC[C@@]4(c5cc([C@@]6(C(=O)OC)C[C@H]7C[C@@H](C(C)(F)F)CN(Cc8c6[nH]c6ccc(CNCCN9CCOCC9)cc86)C7)c(OC)cc5N(C)[C@H]4[C@@](O)(C(=O)OC)[C@@H]1OC(C)=O)[C@@H]32	> 100000 nM
CC[C@]12C=CCN3CC[C@@]4(c5cc([C@@]6(C(=O)OC)C[C@@H]7C[C@@H](C(C)(F)F)CN(Cc8c6[nH]c6ccccc86)C7)c(OC)cc5N(C)[C@H]4[C@@](O)(C(=O)OC)[C@@H]1OC(C)=O)[C@@H]32 [VINFLUNINE]	80 nM
CC[C@]12C=CCN3CC[C@@]4(c5cc([C@@]6(C(=O)OC)C[C@H]7C[C@@H](C(C)(F)F)CN(CCc8c6[nH]c6ccc(C(=O)OC)cc86)C7)c(OC)cc5N(C)[C@H]4[C@@](O)(C(=O)OC)[C@@H]1OC(C)=O)[C@@H]32	8730 nM
CC[C@]12C=CCN3CC[C@@]4(c5cc([C@@]6(C(=O)OC)C[C@H]7C[C@@H](C(C)(F)F)CN(CCc8c6[nH]c6ccc(-c9ccccc9)cc86)C7)c(OC)cc5N(C)[C@H]4[C@@](O)(C(=O)OC)[C@@H]1OC(C)=O)[C@@H]32	2160 nM
CC[C@]12C=CCN3CC[C@@]4(c5cc([C@@]6(C(=O)OC)C[C@H]7C[C@@H](C(C)(F)F)CN(Cc8c6[nH]c6ccc(-c9ccccc9Cl)cc86)C7)c(OC)cc5N(C)[C@H]4[C@@](O)(C(=O)OC)[C@@H]1OC(C)=O)[C@@H]32	1010 nM
CC[C@]12C=CCN3CC[C@@]4(c5cc([C@@]6(C(=O)OC)C[C@H]7C[C@@H](C(C)(F)F)CN(Cc8c6[nH]c6ccc(NC(=O)N9CCOCC9)cc86)C7)c(OC)cc5N(C)[C@H]4[C@@](O)(C(=O)OC)[C@@H]1OC(C)=O)[C@@H]32	> 100000 nM
CC[C@]12C=CCN3CC[C@@]4(c5cc([C@@]6(C(=O)OC)C[C@H]7C[C@@H](C(C)(F)F)CN(Cc8c6[nH]c6ccc(NC(N)=O)cc86)C7)c(OC)cc5N(C)[C@H]4[C@@](O)(C(=O)OC)[C@@H]1OC(C)=O)[C@@H]32	> 100000 nM
CC[C@]12C=CCN3CC[C@@]4(c5cc([C@@]6(C(=O)OC)C[C@H]7C[C@@H](C(C)(F)F)CN(Cc8c6[nH]c6ccc(NC)cc86)C7)c(OC)cc5N(C)[C@H]4[C@@](O)(C(=O)OC)[C@@H]1OC(C)=O)[C@@H]32	6910 nM
C#Cc1ccc2[nH]c3c(c2c1)CCN1C[C@H](C[C@@H](C(C)(F)F)C1)C[C@]3(C(=O)OC)c1cc2c(cc1OC)N(C)[C@H]1[C@@](O)(C(=O)OC)[C@H](OC(C)=O)[C@]3(CC)C=CCN4CC[C@]21[C@@H]43	50 nM
CC[C@]12C=CCN3CC[C@@]4(c5cc([C@@]6(C(=O)OC)C[C@H]7C[C@@H](C(C)(F)F)CN(Cc8c6[nH]c6ccc(NC(=O)N(C)C)cc86)C7)c(OC)cc5N(C)[C@H]4[C@@](O)(C(=O)OC)[C@@H]1OC(C)=O)[C@@H]32	> 100000 nM
CC[C@]12C=CCN3CC[C@@]4(c5cc([C@@]6(C(=O)OC)C[C@H]7C[C@@H](C(C)(F)F)CN(CCc8c6[nH]c6ccc(N)cc86)C7)c(OC)cc5N(C)[C@H]4[C@@](O)(C(=O)OC)[C@@H]1OC(C)=O)[C@@H]32	37800 nM
CCCCc1ccc2[nH]c3c(c2c1)CN1C[C@H](C[C@@H](C(C)(F)F)C1)C[C@]3(C(=O)OC)c1cc2c(cc1OC)N(C)[C@H]1[C@@](O)(C(=O)OC)[C@H](OC(C)=O)[C@]3(CC)C=CCN4CC[C@]21[C@@H]43	1880 nM
CC[C@]12C=CCN3CC[C@@]4(c5cc([C@@]6(C(=O)OC)C[C@H]7C[C@@H](C(C)(F)F)CN(Cc8c6[nH]c6ccc(Nc9ccccc9)cc86)C7)c(OC)cc5N(C)[C@H]4[C@@](O)(C(=O)OC)[C@@H]1OC(C)=O)[C@@H]32	1860 nM
CC[C@]12C=CCN3CC[C@@]4(c5cc([C@@]6(C(=O)OC)C[C@H]7C[C@@H](C(C)(F)F)CN(Cc8c6[nH]c6ccc(NC(=S)NC9CC9)cc86)C7)c(OC)cc5N(C)[C@H]4[C@@](O)(C(=O)OC)[C@@H]1OC(C)=O)[C@@H]32	27500 nM
CCC(=O)c1ccc2[nH]c3c(c2c1)CN1C[C@H](C[C@@H](C(C)(F)F)C1)C[C@]3(C(=O)OC)c1cc2c(cc1OC)N(C)[C@H]1[C@@](O)(C(=O)OC)[C@H](OC(C)=O)[C@]3(CC)C=CCN4CC[C@]21[C@@H]43	17400 nM
CC[C@]12C=CCN3CC[C@@]4(c5cc([C@@]6(C(=O)OC)C[C@H]7C[C@@H](C(C)(F)F)CN(Cc8c6[nH]c6ccc(-c9ccc(C#N)cc9)cc86)C7)c(OC)cc5N(C)[C@H]4[C@@](O)(C(=O)OC)[C@@H]1OC(C)=O)[C@@H]32	2500 nM
CC[C@]12C=CCN3CC[C@@]4(c5cc([C@@]6(C(=O)OC)C[C@H]7C[C@@H](C(C)(F)F)CN(Cc8c6[nH]c6ccc(N=[N+]=[N-])cc86)C7)c(OC)cc5N(C)[C@H]4[C@@](O)(C(=O)OC)[C@@H]1OC(C)=O)[C@@H]32	160 nM
CC[C@]12C=CCN3CC[C@@]4(c5cc([C@@]6(C(=O)OC)C[C@H]7C[C@@H](C(C)(F)F)CN(Cc8c6[nH]c6ccc(CNCCO)cc86)C7)c(OC)cc5N(C)[C@H]4[C@@](O)(C(=O)OC)[C@@H]1OC(C)=O)[C@@H]32	95500 nM

SMILES	IC50
CC[C@]12C=CCN3CC[C@@]4(c5cc([C@@]6(C(=O)OC)C[C@H]7C[C@@H](C(C)(F)F)CN(Cc8c6[nH]c6ccc(C9CC9)cc86)C7)c(OC)cc5N(C)[C@H]4[C@@](O)(C(=O)OC)[C@@H]1OC(C)=O)[C@@H]32	120 nM
CC[C@]12C=CCN3CC[C@@]4(c5cc([C@@]6(C(=O)OC)C[C@H]7C[C@@H](C(C)(F)F)CN(Cc8c6[nH]c6ccc(NC(=O)C(F)(F)F)cc86)C7)c(OC)cc5N(C)[C@H]4[C@@](O)(C(=O)OC)[C@@H]1OC(C)=O)[C@@H]32	1810 nM
CC[C@]12C=CCN3CC[C@@]4(c5cc([C@@]6(C(=O)OC)C[C@H]7C[C@@H](C(C)(F)F)CN(Cc8c6[nH]c6ccc(CN9CCOCC9)cc86)C7)c(OC)cc5N(C)[C@H]4[C@@](O)(C(=O)OC)[C@@H]1OC(C)=O)[C@@H]32	3930 nM
CC[C@]12C=CCN3CC[C@@]4(c5cc([C@@]6(C(=O)OC)C[C@H]7C[C@@H](C(C)(F)F)CN(Cc8c6[nH]c6ccc(C(=O)OCc9ccccc9)cc86)C7)c(OC)cc5N(C)[C@H]4[C@@](O)(C(=O)OC)[C@@H]1OC(C)=O)[C@@H]32	280 nM
CC[C@]12C=CCN3CC[C@@]4(c5cc([C@@]6(C(=O)OC)C[C@H]7C[C@@H](C(C)(F)F)CN(CCc8c6[nH]c6ccc(N(C)C)cc86)C7)c(OC)cc5N(C)[C@H]4[C@@](O)(C(=O)OC)[C@@H]1OC(C)=O)[C@@H]32	220 nM
CC[C@]12C=CCN3CC[C@@]4(c5cc([C@@]6(C(=O)OC)C[C@H]7C[C@@H](C(C)(F)F)CN(Cc8c6[nH]c6ccc(CNc9ccc(OC)cc9)cc86)C7)c(OC)cc5N(C)[C@H]4[C@@](O)(C(=O)OC)[C@@H]1OC(C)=O)[C@@H]32	3520 nM
CC[C@]12C=CCN3CC[C@@]4(c5cc([C@@]6(C(=O)OC)C[C@H]7C[C@@H](C(C)(F)F)CN(Cc8c6[nH]c6ccc(-c9ccc(F)cc9F)cc86)C7)c(OC)cc5N(C)[C@H]4[C@@](O)(C(=O)OC)[C@@H]1OC(C)=O)[C@@H]32	1020 nM
CC[C@]12C=CCN3CC[C@@]4(c5cc([C@@]6(C(=O)OC)C[C@H]7C[C@@H](C(C)(F)F)CN(Cc8c6[nH]c6ccc(C(=O)C9CC9)cc86)C7)c(OC)cc5N(C)[C@H]4[C@@](O)(C(=O)OC)[C@@H]1OC(C)=O)[C@@H]32	4450 nM
CC[C@]12C=CCN3CC[C@@]4(c5cc([C@@]6(C(=O)OC)C[C@H]7C[C@@H](C(C)(F)F)CN(Cc8c6[nH]c6ccc(C(=O)OC(C)C)cc86)C7)c(OC)cc5N(C)[C@H]4[C@@](O)(C(=O)OC)[C@@H]1OC(C)=O)[C@@H]32	3260 nM
CC[C@]12C=CCN3CC[C@@]4(c5cc([C@@]6(C(=O)OC)C[C@H]7C[C@@H](C(C)(F)F)CN(Cc8c6[nH]c6ccc(-c9ccoc9)cc86)C7)c(OC)cc5N(C)[C@H]4[C@@](O)(C(=O)OC)[C@@H]1OC(C)=O)[C@@H]32	2280 nM
CCNC(=S)Nc1ccc2[nH]c3c(c2c1)CN1C[C@H](C[C@@H](C(C)(F)F)C1)C[C@]3(C(=O)OC)c1cc2c(cc1OC)N(C)[C@H]1[C@@](O)(C(=O)OC)[C@H](OC(C)=O)[C@]3(CC)C=CCN4CC[C@]21[C@@H]43	5680 nM
CC[C@]12C=CCN3CC[C@@]4(c5cc([C@@]6(C(=O)OC)C[C@H]7C[C@@H](C(C)(F)F)CN(Cc8c6[nH]c6ccc(-c9ccc(F)cc9)cc86)C7)c(OC)cc5N(C)[C@H]4[C@@](O)(C(=O)OC)[C@@H]1OC(C)=O)[C@@H]32	2560 nM
CC[C@]12C=CCN3CC[C@@]4(c5cc([C@@]6(C(=O)OC)C[C@H]7C[C@@H](C(C)(F)F)CN(Cc8c6[nH]c6ccc(-c9ccc(Cl)cc9)cc86)C7)c(OC)cc5N(C)[C@H]4[C@@](O)(C(=O)OC)[C@@H]1OC(C)=O)[C@@H]32	1170 nM
CCc1ccc2[nH]c3c(c2c1)CCN1C[C@H](C[C@@H](C(C)(F)F)C1)C[C@]3(C(=O)OC)c1cc2c(cc1OC)N(C)[C@H]1[C@@](O)(C(=O)OC)[C@H](OC(C)=O)[C@]3(CC)C=CCN4CC[C@]21[C@@H]43	920 nM
C=CCNc1ccc2[nH]c3c(c2c1)CN1C[C@H](C[C@@H](C(C)(F)F)C1)C[C@]3(C(=O)OC)c1cc2c(cc1OC)N(C)[C@H]1[C@@](O)(C(=O)OC)[C@H](OC(C)=O)[C@]3(CC)C=CCN4CC[C@]21[C@@H]43	510 nM
CC[C@]12C=CCN3CC[C@@]4(c5cc([C@@]6(C(=O)OC)C[C@H]7C[C@@H](C(C)(F)F)CN(CCc8c6[nH]c6ccc(NS(C)(=O)=O)cc86)C7)c(OC)cc5N(C)[C@H]4[C@@](O)(C(=O)OC)[C@@H]1OC(C)=O)[C@@H]32	320 nM
CC[C@]12C=CCN3CC[C@@]4(c5cc([C@@]6(C(=O)OC)C[C@H]7C[C@@H](C(C)(F)F)CN(Cc8c6[nH]c6ccc(-c9ccsc9)cc86)C7)c(OC)cc5N(C)[C@H]4[C@@](O)(C(=O)OC)[C@@H]1OC(C)=O)[C@@H]32	3000 nM
CC[C@]12C=CCN3CC[C@@]4(c5cc([C@@]6(C(=O)OC)C[C@H]7C[C@@H](C(C)(F)F)CN(CCc8c6[nH]c6ccc(C)cc86)C7)c(OC)cc5N(C)[C@H]4[C@@](O)(C(=O)OC)[C@@H]1OC(C)=O)[C@@H]32	37 nM
CC[C@]12C=CCN3CC[C@@]4(c5cc([C@@]6(C(=O)OC)C[C@H]7C[C@@H](C(C)(F)F)CN(CCc8c6[nH]c6ccc(C(C)=O)cc86)C7)c(OC)cc5N(C)[C@H]4[C@@](O)(C(=O)OC)[C@@H]1OC(C)=O)[C@@H]32	4720 nM
